Values after ≈ are worked out from the molar mass of the structure shown.
Legend:
[1] = system: RPMI8226 (multiple myeloma); assay: MTT growth inhibition of multiple myeloma cells, 72 h; assay type: cell-based, human; conditions: MTT
How it was run: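 RPMI8226 cells (6000/well) in 1640 medium with 10% FBS were exposed to graded compound concentrations for 72 h at 37 °C, 5% CO2. Viable cells were read by MTT, normalised to untreated control as 100% viability, and 72 h IC50 calculated.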

[2] = system: U87 MG (malignant glioma cell); assay: MTT growth inhibition of human solid tumor cells, 72 h; assay type: cell-based
How it was run: (§1)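 MTT determination of viable cells gives percent viability, normalised to untreated wells taken as 100%. Cells (4000 per well) grew 24 h in serum-supplemented DMEM high glucose, then faced graded compound concentrations for 72 h at 37° C under 5% CO2.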

[3] = system: CNE (nasopharyngeal carcinoma cell); assay: as above; assay type: cell-based; conditions: MTT
How it was run: as §1

[4] = system: Hela (human cervical cancer cell); assay: as above; assay type: cell-based; conditions: MTT
How it was run: as §1

A549 (human lung cancer) = assay: as above; assay type: cell-based
How it was run: as §1

[5] = system: MGC 803 (human gastric cancer cell); assay: as above; assay type: cell-based
How it was run: as §1

[6] = system: Huh7 (human liver cancer cell); assay: as above; assay type: cell-based
How it was run: as §1

[7] = system: PANC-1 (pancreatic cancer); assay: as above; assay type: cell-based; conditions: MTT
How it was run: as §1

[8] = system: Becap37 (human breast cancer cell); assay: as above; assay type: cell-based
How it was run: as §1

[9] = system: SK-OV-3 (ovarian cancer cell); assay: as above; assay type: cell-based; conditions: MTT
How it was run: as §1

[10] = system: RKO (human colon adenocarcinoma cell); assay: as above; assay type: cell-based; conditions: MTT
How it was run: as §1

[11] = system: Hep-2 (laryngeal carcinoma); assay: as above; assay type: cell-based
How it was run: as §1

[12] = system: CaES-17 (esophageal cancer cell); assay: as above; assay type: cell-based
How it was run: as §1

MG63 (osteosarcoma) = assay: as above; assay type: cell-based; conditions: MTT
How it was run: as §1

PC-3 (prostate cancer) = assay: as above; assay type: cell-based; conditions: MTT
How it was run: as §1

[13] = system: Jurkat (acute lymphoblastic leukemia, ALL); assay: MTT growth inhibition of leukemia cells, 72 h; assay type: cell-based, human
How it was run: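 Jurkat human acute lymphoblastic leukemia cells were seeded at 6000 cells per well in 96-well plates containing 1640 medium with 10% fetal bovine serum. Test compounds were added across a range of concentrations, and plates were held at 37° C. in 5% CO2 for 72 hours before viable cells were quantified by MTT.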

[14] = system: H9 (acute lymphoblastic leukemia, ALL); assay: MTT growth inhibition of leukemia cells, 72 h; assay type: cell-based, human; conditions: MTT
How it was run: (§2)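 Seed 6000 cells/well (1640, 10% FBS); add compound at several concentrations, mix; incubate 72 h, 37 °C, 5% CO2; MTT read; % viability vs untreated control; IC50 at 72 h.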

[15] = system: K562/adr (drug-resistant, chronic myeloid leukemia, CML); assay: MTT growth inhibition of leukemia cells, 72 h; assay type: cell-based, human; conditions: MTT
How it was run: as §2

[16] = system: Kasumi-1 (acute myeloid leukemia M2 type, AML-M2); assay: MTT growth inhibition of leukemia cells, 72 h; assay type: cell-based, human; conditions: MTT
How it was run: as §2

[17] = system: NB4 (acute promyelocytic leukemia, AML); assay: MTT growth inhibition of leukemia cells, 72 h; assay type: cell-based, human; conditions: MTT
How it was run: as §2

COC(=O)C[C@@](CCCC(C)(C)OC(=O)/C=C/c1ccco1)(OC(=O)/C=C/c1ccco1)C(=O)O[C@@H]1C(OC)=C[C@]23CCCN2CCc2cc4c(cc2[C@H]13)OCO4 [BS-HH-0022] was tested, and the “IC50 RPMI8226” value [1] was 0.12 µg/mL (≈ 0.153 µM), the “IC90 RPMI8226” value [1] was 0.63 µg/mL (≈ 0.802 µM) and the “IC50 U87 MG” value [2] was 0.16 µg/mL (≈ 0.204 µM). The “IC90 U87 MG” value [2] was 0.59 µg/mL (≈ 0.751 µM), the “IC50 CNE” value [3] was 0.21 µg/mL (≈ 0.267 µM) and the “IC90 CNE” value [3] was 16 µg/mL (≈ 20.4 µM). The “IC50 Hela” value [4] was 0.33 µg/mL (≈ 0.42 µM), the “IC90 Hela” value [4] was 9.38 µg/mL (≈ 11.9 µM) and the “IC50 A549” value (A549 (human lung cancer)) was 0.23 µg/mL (≈ 0.293 µM). The “IC90 A549” value (A549 (human lung cancer)) was over 16 µg/mL, the “IC50 MGC 803” value [5] was 0.16 µg/mL (≈ 0.204 µM) and the “IC90 MGC 803” value [5] was 0.76 µg/mL (≈ 0.967 µM). The “IC50 Huh7” value [6] was 0.13 µg/mL (≈ 0.165 µM), the “IC90 Huh7” value [6] was 0.99 µg/mL (≈ 1.26 µM) and the “IC50 PANC-1” value [7] was 0.69 µg/mL (≈ 0.878 µM). The “IC90 PANC-1” value [7] was 15.56 µg/mL (≈ 19.8 µM), the “IC50 Becap37” value [8] was 0.23 µg/mL (≈ 0.293 µM) and the “IC90 Becap37” value [8] was 11.14 µg/mL (≈ 14.2 µM). For the same molecule, the “IC50 SK-OV-3” value [9] was 1.33 µg/mL (≈ 1.69 µM), the “IC90 SK-OV-3” value [9] was over 16 µg/mL and the “IC50 RKO” value [10] was 0.044 µg/mL (≈ 0.056 µM). The “IC90 RKO” value [10] was 0.35 µg/mL (≈ 0.445 µM), the “IC50 Hep-2” value [11] was 0.22 µg/mL (≈ 0.28 µM) and the “IC90 Hep-2” value [11] was over 16 µg/mL. The “IC50 CaES-17” value [12] was 0.61 µg/mL (≈ 0.776 µM), the “IC90 CaES-17” value [12] was over 16 µg/mL and the “IC50 MG 63” value (MG63 (osteosarcoma)) was 0.24 µg/mL (≈ 0.305 µM). For the same molecule, the “IC90 MG 63” value (MG63 (osteosarcoma)) was 3.25 µg/mL (≈ 4.14 µM), the “IC50 PC-3” value (PC-3 (prostate cancer)) was 1.37 µg/mL (≈ 1.74 µM) and the “IC90 PC-3” value (PC-3 (prostate cancer)) was over 16 µg/mL. The “IC50 Jurkat” value [13] was 0.088 µg/mL (≈ 0.112 µM), the “IC90 Jurkat” value [13] was 10.13 µg/mL (≈ 12.9 µM) and the “IC50 H9” value [14] was 0.19 µg/mL (≈ 0.242 µM). For the same molecule, the “IC90 H9” value [14] was 0.4 µg/mL (≈ 0.509 µM), the “IC50 K562/adr” value [15] was 0.41 µg/mL (≈ 0.522 µM) and the “IC90 K562/adr” value [15] was 1.84 µg/mL (≈ 2.34 µM). The “IC50 Kasumi-1” value [16] was 0.063 µg/mL (≈ 0.0802 µM), the “IC90 Kasumi-1” value [16] was 0.22 µg/mL (≈ 0.28 µM) and the “IC50 NB4” value [17] was 0.08 µg/mL (≈ 0.102 µM). The “IC90 NB4” value [17] was 0.25 µg/mL (≈ 0.318 µM).

Reference: patent US9428519B2, “Acylated derivative of homoharringtonine, preparation method therefor, and application thereof” (HANGZHOU BENSHENG PHARMACEUTICAL CO., LTD., priority 2011, dated 2016)
